Consider 9 molecules from article PMC6395383, “Participation of Gαi-Adenylate Cyclase and ERK1/2 in Mas Receptor Signaling Pathways” (Frontiers in Pharmacology, 2019).

Counter-ions that a name gives are not always drawn. No end group written: not given here.

For series [1], the system named is heart. The note with it: orally active; ref Ferreira et al., 2007; cited from earlier work. An excerpt: The physiological relevance of the constitutive activity of the MasR remains to be determined. Constitutive activity of GPCRs for various neurotransmitters contributes to basal neuronal activity ([Seifert and Wenzel-Seifert, 2002]). The mRNA encoding the MasR has been detected in various regions of the rat and mouse brain ([Young et al., 1988]; [Bunnemann et al., 1990]; [Martin et al., 1992]; [Metzger et al., 1995]). In addition, it has been reported that MasR-KO mice have alterations of the CNS ([Walther et al., 1998], [2000a],[b]). Thus, the constitutive activity of the MasR could play a reg ...

Series [2] deals with HEK293T cells. In words: cAMP accumulation, forskolin-stimulated, in empty-vector (pcDNA 3.1) HEK293T cells. The note with it: HEK293T transfected with empty vector; 1 mM IBMX, 1 μM forskolin; ligand 5 min; three independent experiments. The class given is cell-based, human. Background: Changes in cAMP serve as a functional read-out for many G protein-coupled receptors.
Protocol: For time-course assays, transfected cells were seeded in 24 wells dishes and after 24 h, 100% confluent cells were starved for 2 h and incubated 5 min in basal culture medium supplemented with 1 mM IBMX at 37°C, followed by exposure to 1 μM forskolin for 5, 10, 15, 30, or 60 min. In concentration response assays, transfected cells were seeded in 24 wells dishes after 24 h, 100% confluent cells were starved for 2 h and incubated 5 min in basal culture medium supplemented with 1 mM IBMX at 37°C, followed by 10 min exposure to 1 μM forskolin to increase basal cAMP levels, and incubated for 5 min with indicated concentrations of Ang-(1–7) or AVE 0991. For all cAMP determinations, the reactions were stopped by ethanol addition followed by centrifugation at 2,000 g for 10 min. The ethanol phase was then dried, and the residue resuspended in 50 mM Tris-HCl pH 7.4, 0.1% BSA. cAMP content was determined by competition of [^3H]cAMP for PKA, as previously described ([Davio et al., 1995]).
The target in series [3] is T1, human MasR (Homo sapiens, UniProt P04201).
T1 construct: host or cells: HEK293T, transient transfection
T1 sequence (P04201 1-325): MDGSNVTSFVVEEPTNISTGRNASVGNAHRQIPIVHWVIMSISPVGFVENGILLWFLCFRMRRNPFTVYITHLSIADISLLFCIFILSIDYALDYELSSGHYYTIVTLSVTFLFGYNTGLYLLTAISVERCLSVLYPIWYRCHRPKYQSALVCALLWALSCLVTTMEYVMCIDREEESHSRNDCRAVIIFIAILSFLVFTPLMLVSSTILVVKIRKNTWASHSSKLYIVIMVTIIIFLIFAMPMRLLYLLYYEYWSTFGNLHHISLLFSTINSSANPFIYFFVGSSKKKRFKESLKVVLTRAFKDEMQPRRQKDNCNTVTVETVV
The experiment in a line: cAMP accumulation, forskolin-stimulated, in MasR-transfected HEK293T cells (competition of [^3H]cAMP for PKA). The class given is cell-based. Conditions: 1 mM IBMX.
Protocol: A pcDNA3.1(+)-myc-MasR expression construct corresponding to the human MasR (accession number: NM_002377.2) fused to the c-myc tag peptide at N-terminal was acquired from Life Technologies (Grand Island, NY, United States). An empty vector [pcDNA 3.1 (+)] was used both as negative control and to deliver an equal amount of plasmid per transfection in all the experiments.
Cultures were maintained at 37°C in humidified atmosphere containing 5% CO2. For transient transfections, cells were grown to 80–90% confluency and the cDNA constructs were transfected using the K2 Transfection System (Biontex, Munich, Germany). The transfection protocol was optimized as recommended by the suppliers. Assays were performed 48 h after transfection. […] The transfection protocol was optimized as recommended by the suppliers. Assays were performed 48 h after transfection.
For determination of cAMP basal levels, transfected cells were seeded in 12 wells dishes, 24 h later 100% confluent cells were starved for 2 h and pretreated, when indicated, for 1 h with pertussis toxin (100 ng/ml) and incubated later for 30 min in basal culture medium supplemented with 1 mM IBMX at 37°C. […] The ethanol phase was then dried, and the residue resuspended in 50 mM Tris-HCl pH 7.4, 0.1% BSA. cAMP content was determined by competition of [^3H]cAMP for PKA, as previously described ([Davio et al., 1995]).

In series [4] the test system is MasR. Also noted: method as in Gaidarov et al. (2018). Conditions: 30 min forskolin pre-incubation, 60 min with ligand; ref Gaidarov et al. (2018); cited from earlier work.
Series [5] concerns A549 cells. The experiment in a line: Intracellular Ca^2+ (Fura-2AM) in A549 cells with endogenous MasR. The format is cell-based, human. Conditions: histamine 10^-4 M, 340/380 ratio, 180 s, representative of three independent experiments.
Protocol: Changes in intracellular Ca^2+ concentration were measured using fura-2 acetoxymethyl ester (Fura-2AM) fluorescent indicator. A549 cells were seeded in 96 wells dishes for 24 h (90–100% confluence). […] Fluorescence was measured in a FlexStation 3 microplate reader (Molecular Devices Inc., San Jose, CA, United States). […] After 30 s of initial recording to determine basal levels, 100 nM Ang (1–7) or 100 μM histamine was added in 100 μl final volumes, and the time course of intracellular Ca^2+ mobilization was recorded for 180 s. […] Autofluorescence was quantified by measuring the fluorescence produced by an equivalent suspension of not-loaded cells. Results were expressed as the ratio of fluorescence’s 340/380 over basal. Basal levels were determined as the media of the recorded measurements in the first 30 s for each well.
Series [6] relates to MasR (A549 cells). The experiment in a line: Intracellular Ca^2+ (Fura-2AM) in A549 cells transfected with pcDNA 3.1/myc-MasR. The class given is cell-based, human. Conditions: histamine 10^-4 M, same conditions (Figure 3E,F: empty vector or MasR).
Protocol: An empty vector [pcDNA 3.1 (+)] was used both as negative control and to deliver an equal amount of plasmid per transfection in all the experiments.
Changes in intracellular Ca^2+ concentration were measured using fura-2 acetoxymethyl ester (Fura-2AM) fluorescent indicator. […] Fluorescence was measured in a FlexStation 3 microplate reader (Molecular Devices Inc., San Jose, CA, United States). […] After 30 s of initial recording to determine basal levels, 100 nM Ang (1–7) or 100 μM histamine was added in 100 μl final volumes, and the time course of intracellular Ca^2+ mobilization was recorded for 180 s. […] Autofluorescence was quantified by measuring the fluorescence produced by an equivalent suspension of not-loaded cells. Results were expressed as the ratio of fluorescence’s 340/380 over basal. […]
Series [7] has as its system rat proximal straight tubule. Conditions: against 10^-12 and 10^-8 M Ang-(1–7); ref Garcia and Garvin (1994); cited from earlier work. From the text: (§1) The analysis of the interaction between Ang-(1–7) and the AT1R originated discrepancies. […] In addition, [Teixeira et al. (2017)] by performing competition binding assays using ...
For series [8], the system named is AT1R mRNA. In words: AT1R mRNA by qPCR after siRNA transfection of HEK293T cells. Conditions: siRNA 100 nM, 48 h after transfection, β-Actin, three independent experiments. The format is cell-based, human. How it is done: HEK293T (human embryonic kidney) and A549 (human lung carcinoma) cells were cultured in Dulbecco’s modified Eagle’s medium (DMEM) supplemented with 10% fetal calf serum and 50 μg/ml gentamicin. Cultures were maintained at 37°C in humidified atmosphere containing 5% CO2. For transient transfections, cells were grown to 80–90% confluency and the cDNA constructs were transfected using the K2 Transfection System (Biontex, Munich, Germany). The transfection protocol was optimized as recommended by the suppliers. Assays were performed 48 h after transfection. […]
Total RNA was isolated from wild type or transfected HEK293T cells using Quick-Zol reagent (Kalium Technologies, Bernal, Argentina) following the manufacturer’s instructions. […] Quantitative real-time PCR (qPCR) was performed in triplicate on the Rotor Gene Q cycler (Qiagen, Hilden, Germany) using the resulting cDNA, the HOT FIREPol EvaGreen qPCR Mix Plus (Solis BioDyne, Tartu, Estonia) for product detection, and the following primers: human MasR (NM_002377.2) forward, 5′-[…] -3′ and reverse 5′-[…]-3′; human AT1R (M93394.1) forward, 5′-[…]-3′ and reverse, 5′-[…]-3′; human AT2R (NM_000686.4) forward, 5′-[…]-3′ and reverse 5′-[…]-3′; and human β-Actin forward, 5′-[…]-3′ and reverse 5′-[…]-3′. […]

For series [9], the system named is renal AT1R. Conditions: pM range; reference not clearly printed; cited from earlier work.
From the text: as §1

Series [10] relates to AT1R. The note with it: CHO-K1 cells; ref Kostenis et al., 2005; cited from earlier work. From the text: The modulation of the activity of ERK1/2 by Ang-(1–7) has been analyzed previously. […] Participation of the M ...
Series [11] concerns the target AT1R (Homo sapiens) (UniProt P30556). The experiment in a line: competition binding. The note with it: cited from earlier work.
For series [12] the target is unchanged. The experiment in a line: competition binding with 3H-Ang II. Conditions: cited from earlier work.
The subject of series [13] is Mas receptor. Conditions: ref Tetzner et al., 2016; cited from earlier work. From the text: (§2) The reasons for this discrepancy could rely on the different approaches used to detect the cAMP levels. We desig ...
Series [14] deals with MrgD receptor. Conditions: ref Tetzner et al., 2016; cited from earlier work.
From the text: as §2

Series [15] has as its system MasR. Also noted: method as in 2 sources, one per row (each row's own in cited_ref): ref Bikkavilli et al., 2006; Shemesh et al., 2008; Zhang et al., 2012; Tirupula et al., 2014 ||| ref Dong et al., 2001. Conditions: ref Dong et al., 2001; cited from earlier work.

AT1R (Homo sapiens), sequence (P30556 whole entry): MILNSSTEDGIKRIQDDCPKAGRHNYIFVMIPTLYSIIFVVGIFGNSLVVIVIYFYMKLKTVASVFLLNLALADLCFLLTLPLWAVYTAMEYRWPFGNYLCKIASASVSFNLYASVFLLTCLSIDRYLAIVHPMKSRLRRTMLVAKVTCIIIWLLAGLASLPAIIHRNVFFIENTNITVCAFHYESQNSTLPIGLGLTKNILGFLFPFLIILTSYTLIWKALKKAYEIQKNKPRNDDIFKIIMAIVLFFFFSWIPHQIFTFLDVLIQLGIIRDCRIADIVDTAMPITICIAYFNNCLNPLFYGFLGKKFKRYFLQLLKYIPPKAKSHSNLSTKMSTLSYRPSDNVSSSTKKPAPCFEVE

With `CCNC(=O)NS(=O)(=O)c1sc(CC(C)C)cc1-c1ccc(Cn2c(-c3ccccc3)nc(OC)c2C=O)cc1` [AVE 0991, 5-formyl-4-methoxy-2-phenyl-1-[[4-[2-ethylaminocarbonylsulfonamido-5-isobutil-3-thienyl]phenyl]-methyl]imidazole], in [1], the “heart dysfunction, AVE 0991” value is reported as “beneficial effects obtained in heart dysfunction”. In addition, the “modulation of cAMP levels, empty vector” value in [2] was “did not alter cAMP levels”. Besides, the “modulation of cAMP levels” value in series [3] (HEK293T overexpressing MasR, 1 μM forskolin, ligand 5 min) is “concentration-dependent decrease in the production of cAMP”. In addition, the “pEC50, concentration-dependent decrease in the production of cAMP” value in series [3] (HEK293T transfected with pcDNA3.1/c-myc-MasR, 10 min 1 μM forskolin, then 5 min ligand, 37°C, mean ± SEM of three independent experiments) worked out at 7.75 ± 0.40. In addition, in series [4], the “forskolin-stimulated cAMP levels in MasR-transfected HEK293 cells” value is given as “no change in forskolin-stimulated cAMP levels”.
On to `NCCc1c[nH]cn1` [histamine, histamine dihydrochloride], for which, in [5], the “intracellular Ca^2+ levels, A549 cells (endogenous MasR), positive control” value is listed as “significant increase in cytosolic Ca^2+ levels”. Also, the “intracellular Ca^2+ levels, transfected A549 cells, positive control” value in series [6] was “important increase in Ca^2+ levels”.
For the molecule `CCCCc1nc(Cl)c(CO)n1Cc1ccc(-c2ccccc2-c2nn[nH]n2)cc1` [losartan], the “block of Ang-(1–7) effects on absorption” value in [7] is on record as “both effects were blocked by losartan”.
Regarding “AT1R siRNA: human AT1R siRNA (AUACGUGACUGUAGAAUUG) (chemistry not given here)”, in series [8], the “reduction of AT1R mRNA levels versus scrambled siRNA” value is given as roughly 50%.
As for “Ang II: angiotensin II, of the classical RAS axis (DRVYIHPF; Angiotensin-2; UniProt P01019 25-32, looked up)”, the “affinity of renal AT1R on proximal tubules” value in series [9] is on record as “very high affinity for Ang II (in the pM range)”. In addition, in series [10], the “Ang II-induced IP1 production and Ca^2+ increase on MasR/AT1R coexpression” value was “significantly decreased both the Ang II-induced production of IP1 and the increase of intracellular Ca^2+ levels mediated by the AT1R”.
As usually defined, the Ki is a dissociation constant, usually derived from enzyme kinetics or from competition with a known ligand. Turning to Angiotensin-(1-7) (from UniProt P01019), the values for the inhibitory constant (Ki) in series [11] and in series [12] were 360 nM and 200 nM, respectively.
For the molecule D-Ala7-Ang-(1–7), in series [13], the “antagonism of Ang-(1–7)-induced cAMP increase, HEK293 overexpressing Mas” value was “blocked”. The “antagonism of Ang-(1–7)-induced cAMP increase, HEK293 overexpressing MrgD” value in series [14] is “blocked”.
For the molecule D-Pro7-Ang-(1–7), in series [13], the “antagonism of Ang-(1–7)-induced cAMP increase, HEK293 overexpressing Mas” value is reported as “blocked”. For the same molecule, the “antagonism of Ang-(1–7)-induced cAMP increase, HEK293 overexpressing MrgD” value in [14] is on record as “blocked”.
Turning to “NPFF: neuropeptide FF (FLFQPQRF; ends and bridges not checked; UniProt O15130 69-76, looked up)”, the “conventional G protein signaling, NPFF” value in series [15] is reported as “conventional G protein signaling has been reported”.
